Legend:
RAR α = target: T1, RAR α (Homo sapiens, UniProt P10276); assay: Ligand binding assay, retinoic acid receptor α; conditions: first value of α/β/γ cell
T1 sequence (P10276 1-462): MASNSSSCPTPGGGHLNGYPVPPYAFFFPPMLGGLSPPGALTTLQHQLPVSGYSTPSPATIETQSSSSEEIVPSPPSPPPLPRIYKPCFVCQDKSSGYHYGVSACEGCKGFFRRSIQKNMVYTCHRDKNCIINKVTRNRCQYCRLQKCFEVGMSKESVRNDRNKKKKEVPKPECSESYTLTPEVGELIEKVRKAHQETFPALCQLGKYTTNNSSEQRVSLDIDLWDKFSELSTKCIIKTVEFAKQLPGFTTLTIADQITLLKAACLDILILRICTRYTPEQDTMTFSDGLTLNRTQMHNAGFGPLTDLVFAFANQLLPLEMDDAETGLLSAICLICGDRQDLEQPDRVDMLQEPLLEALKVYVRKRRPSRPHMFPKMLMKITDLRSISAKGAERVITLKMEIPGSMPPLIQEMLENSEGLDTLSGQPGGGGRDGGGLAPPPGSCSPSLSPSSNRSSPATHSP
Excerpt: (§1) The retinoic acid receptor agonist selectivity of a compound of the invention may be determined by using ligand binding assays known to the skilled artisan (Apfel et al., Proc. Natl. Acad. Sci., 1992, 89, 7129; Teng et al., J. Med. Chem., 1997, 40, 2445; Bryce et al., U.S. Pat. No. 5,807,900 which are herein incorporated by reference). Treatment with RAR agonists, particularly RAR γ agonists may promote repair of alveolar matrix and septation, which are in important in treating emphysema. It should be noted that RAR agonists that are not γ selective may be effective in treating emphysema
as §1, with “emphysema” for “emphysema.”, “emphysema.” for “emphysema”

RAR β = target: T2, RAR β (Homo sapiens, UniProt P10826); assay: Ligand binding assay, retinoic acid receptor β; conditions: second value of α/β/γ cell
T2 sequence (P10826 1-455): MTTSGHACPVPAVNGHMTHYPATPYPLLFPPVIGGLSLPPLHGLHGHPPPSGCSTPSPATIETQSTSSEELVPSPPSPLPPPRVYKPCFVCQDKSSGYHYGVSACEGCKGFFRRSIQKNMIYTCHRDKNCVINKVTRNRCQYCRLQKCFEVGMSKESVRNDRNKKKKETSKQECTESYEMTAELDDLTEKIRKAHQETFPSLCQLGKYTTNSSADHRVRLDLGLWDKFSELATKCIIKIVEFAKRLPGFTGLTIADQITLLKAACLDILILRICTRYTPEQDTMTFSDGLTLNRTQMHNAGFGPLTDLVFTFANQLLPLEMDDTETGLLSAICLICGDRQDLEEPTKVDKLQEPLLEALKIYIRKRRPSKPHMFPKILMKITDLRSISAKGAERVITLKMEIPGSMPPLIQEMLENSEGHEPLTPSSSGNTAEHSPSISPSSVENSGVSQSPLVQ
Excerpt: as §1
as §1, with “emphysema” for “emphysema.”, “emphysema.” for “emphysema”

RAR γ = target: T3, RAR γ (Homo sapiens, UniProt P13631); assay: Ligand binding assay, retinoic acid receptor γ; conditions: third value of α/β/γ cell
T3 sequence (P13631 1-454): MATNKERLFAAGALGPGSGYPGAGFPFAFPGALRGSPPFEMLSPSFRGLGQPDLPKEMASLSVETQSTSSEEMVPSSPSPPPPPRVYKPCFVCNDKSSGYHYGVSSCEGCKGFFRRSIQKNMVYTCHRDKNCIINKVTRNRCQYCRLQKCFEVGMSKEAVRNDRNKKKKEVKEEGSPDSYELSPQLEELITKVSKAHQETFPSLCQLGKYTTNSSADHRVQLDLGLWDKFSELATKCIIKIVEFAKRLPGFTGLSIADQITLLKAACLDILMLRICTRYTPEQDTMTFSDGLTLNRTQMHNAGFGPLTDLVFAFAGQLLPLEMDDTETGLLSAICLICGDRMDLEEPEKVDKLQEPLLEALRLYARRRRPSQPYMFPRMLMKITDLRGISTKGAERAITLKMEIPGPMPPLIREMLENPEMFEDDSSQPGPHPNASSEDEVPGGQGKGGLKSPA
Excerpt: as §1
as §1, with “emphysema” for “emphysema.”, “emphysema.” for “emphysema”

[1] = system: rat model of elastase-induced emphysema; assay: Alveolar repair in rat model of elastase-induced emphysema; assay type: in vivo, male Sprague Dawley rats; conditions: once per day starting 21 days post elastase injury, relative to elastase+vehicle group
Excerpt: Compounds of the invention may be evaluated for their effects on alveolar repair in the rat model of elastase-induced emphysema (Massaro et al., Nature, 1997, Vol. 3, No. 6: 675; Massaro et al., U.S. Pat. No. 5,998,486). Preferably, animals are divided into treatment groups of approximately eight. Lung inflammation and alveolar damage may be induced in male Sprague Dawley rats by a single instillation of about 2 U/gram body mass of pancreatic elastase (porcine derived, Calbiochem).
Animals may be treated with a compound of the invention formulated Miglyol at convenient oral dosage ranges (preferably, between about 10.0 mg/kg and 0.0001 mg/kg) and will be dosed orally once per day starting 21 days post injury. Control groups are challenged with elastase and 21 days later are treated with vehicle (Miglyol) for 14 days. Animals were sacrificed 24 hours after the last dose by exsanguination under deep anesthesia. Blood was collected at time of exsanguination for analysis.
The lungs are inflated with 10% neutral buffered formalin by intratracheal instillation at a constant rate (1 ml/gram body mass/min). The lung is excised and immersed in fixative for 24 hours prior to processing. Standard methods were used to prepare 5 μm paraffin sections. Sections were stained with Hematoxylin and Eosin. Alveolar measurements were made in four regions of the lung/rat by Computerized Morphometric analysis. The mean value/treatment group may be determined by summing the average area/rat for all eight rats/treatment groups and repair of elastase damage expressed as percentage of repair relative to the elastase+vehicle treated group from the following calculation: […]

Row | Structure (SMILES) | IC50 (RAR α) [nM] | IC50 (RAR β) [nM] | IC50 (RAR γ) [nM] | melting point [°C] | % Alveolar repair ([1]; dose 1 μg/kg p.o.) [%] | % Alveolar repair ([1]; dose 10 μg/kg p.o.) [%] | % Alveolar repair ([1]; dose 100 μg/kg p.o.) [%]
1 | CCCCCC(COc1ccc(C(=O)O)cc1)c1ccc2c(c1)OCCC2(C)C (racemic) [Example 5.1, 4-[2-(4,4-dimethyl-chroman-7-yl)-heptyloxy]-benzoic acid] | 3920 | 3160 | 3770 | 91.5 to 93.3 | – | – | –
2 | CCCCCC(COc1ccc(C(=O)O)cc1)c1ccc2c(c1)SCCC2(C)C (racemic) [Example 5.2, 4-[2-(4,4-dimethyl-thiochroman-7-yl)-heptyloxy]-benzoic acid] | 2070 | 3010 | 3230 | 123 to 123.5 | – | – | –
3 | CCCCCC(/C=C/c1ccc(C(=O)O)cc1)c1ccc2c(c1)OCCC2(C)C (racemic) [Example 5.3, 4-[3-(4,4-dimethyl-chroman-7-yl)-oct-1-enyl]-benzoic acid] | 6920 | 2920 | 3870 | – | – | – | –
4 | CCCCCC(/C=C/c1ccc(C(=O)O)cc1)c1ccc2c(c1)SCCC2(C)C (racemic) [Example 5.4, 4-[3-(4,4-dimethyl-thiochroman-7-yl)-oct-1-enyl]-benzoic acid] | 1580 | 1490 | 2330 | – | – | – | –
5 | CCCCCC(/C=C/c1ccc(C(=O)O)cc1)c1ccc2c(c1)N(C)CCC2(C)C (racemic) [Example 5.5, 4-[3-(1,4,4-trimethyl-1,2,3,4-tetrahydro-quinolin-7-yl)-oct-1-enyl]-benzoic acid] | 1460 | 1940 | 1420 | – | 65 | 54 | 60.9
6 | CCCCCC(/C=C/c1ccc(C(=O)O)cc1)c1ccc2c(c1)N(CC)CCC2(C)C (racemic) [Example 5.6, 4-[3-(1-ethyl4,4-dimethyl-1,2,3,4-tetrahydro-quinolin-7-yl)-oct-1-enyl]-benzoic acid] | 1280 | 1470 | 1000 | – | – | – | –
7 | CCC(/C=C/c1ccc(C(=O)O)cc1)c1ccc2c(c1)N(C)CCC2(C)C (racemic) [Example 5.7, 4-[3-(1,4,4-trimethyl-1,2,3,4-tetrahydro-quinolin-7-yl)-pent-1-enyl]-benzoic acid] | 3390 | 1050 | > 10000 | – | – | – | –
8 | CCCCCC(/C=C/c1ccc(C(=O)O)cc1)c1ccc2c(c1)NCCC2(C)C (racemic) [Example 5.10, 4-[3-(4,4-dimethyl-1,2,3,4-tetrahydro-quinolin-7-yl)-oct-1-enyl]-benzoic acid] | 5140 | 8270 | 6390 | – | – | – | –
9 | CCCCCC(/C=C/c1ccc(C(=O)O)cc1F)c1ccc2c(c1)N(C)CCC2(C)C (racemic) [Example 5.11, 3-fluoro-4-[3-(1,4,4-trimethyl-1,2,3,4-tetrahydro-quinolin-7-yl)-oct-1-enyl]-benzoic acid] | 6290 | 3260 | 4060 | – | – | – | –
10 | CCCCCC(COc1ccc(C(=O)O)cc1)c1ccc2c(c1)N(C)CCC2(C)C (racemic) [Example 5.12, 4-[2-(1,4,4-trimethyl-1,2,3,4-tetrahydro-quinolin-7-yl)-heptyloxy]-benzoic acid] | 3170 | 4150 | 5440 | – | – | – | –
11 | CCCCCC(COc1ccc(C(=O)O)cc1)c1ccc2c(c1)N(CC)CCC2(C)C (racemic) [Example 5.13, 4-[2-(1-ethyl4,4-dimethyl-1,2,3,4-tetrahydro-quinolin-7-yl)-heptyloxy]-benzoic acid] | 2520 | 3130 | 3600 | – | – | – | –

Source: US7354931B2, “Heterocyclic retinoid compounds” (Roche Palo Alto LLC, priority 2001, dated 2008)
